According to ChEMBL document CHEMBL3751822, “C1C2-linker substituted 1,5-naphthyridine analogues of oxabicyclooctane-linked NBTIs as broad-spectrum antibacterial agents (part 7)” (Medchemcomm, 2015):
In brackets after ≈: the same amount, converted by molar mass.

Key:
Staphylococcus aureus [1] = assay: Antibacterial activity against Staphylococcus aureus Smith by micro-broth dilution method; assay type: functional
Staphylococcus aureus [2] = assay: Antibacterial activity against methicillin resistant Staphylococcus aureus OIT971 by micro-broth dilution method; assay type: functional
Streptococcus pneumoniae = assay: Antibacterial activity against Streptococcus pneumoniae IID553 by micro-broth dilution method; assay type: functional
Enterococcus faecium = assay: Antibacterial activity against Enterococcus faecium VanA by micro-broth dilution method; assay type: functional
Escherichia coli = assay: Antibacterial activity against Escherichia coli ATCC 25922 by micro-broth dilution method; assay type: functional
Acinetobacter baumannii = assay: Antibacterial activity against Acinetobacter baumannii IID876 by micro-broth dilution method; assay type: functional
Pseudomonas aeruginosa = assay: Antibacterial activity against Pseudomonas aeruginosa PAO1 by micro-broth dilution method; assay type: functional
[3] = biological target: T1, Voltage-gated inwardly rectifying potassium channel KCNH2 (Homo sapiens, UniProt Q12809); assay: Displacement of MK499 from human ERG
T1 sequence (Q12809 whole entry): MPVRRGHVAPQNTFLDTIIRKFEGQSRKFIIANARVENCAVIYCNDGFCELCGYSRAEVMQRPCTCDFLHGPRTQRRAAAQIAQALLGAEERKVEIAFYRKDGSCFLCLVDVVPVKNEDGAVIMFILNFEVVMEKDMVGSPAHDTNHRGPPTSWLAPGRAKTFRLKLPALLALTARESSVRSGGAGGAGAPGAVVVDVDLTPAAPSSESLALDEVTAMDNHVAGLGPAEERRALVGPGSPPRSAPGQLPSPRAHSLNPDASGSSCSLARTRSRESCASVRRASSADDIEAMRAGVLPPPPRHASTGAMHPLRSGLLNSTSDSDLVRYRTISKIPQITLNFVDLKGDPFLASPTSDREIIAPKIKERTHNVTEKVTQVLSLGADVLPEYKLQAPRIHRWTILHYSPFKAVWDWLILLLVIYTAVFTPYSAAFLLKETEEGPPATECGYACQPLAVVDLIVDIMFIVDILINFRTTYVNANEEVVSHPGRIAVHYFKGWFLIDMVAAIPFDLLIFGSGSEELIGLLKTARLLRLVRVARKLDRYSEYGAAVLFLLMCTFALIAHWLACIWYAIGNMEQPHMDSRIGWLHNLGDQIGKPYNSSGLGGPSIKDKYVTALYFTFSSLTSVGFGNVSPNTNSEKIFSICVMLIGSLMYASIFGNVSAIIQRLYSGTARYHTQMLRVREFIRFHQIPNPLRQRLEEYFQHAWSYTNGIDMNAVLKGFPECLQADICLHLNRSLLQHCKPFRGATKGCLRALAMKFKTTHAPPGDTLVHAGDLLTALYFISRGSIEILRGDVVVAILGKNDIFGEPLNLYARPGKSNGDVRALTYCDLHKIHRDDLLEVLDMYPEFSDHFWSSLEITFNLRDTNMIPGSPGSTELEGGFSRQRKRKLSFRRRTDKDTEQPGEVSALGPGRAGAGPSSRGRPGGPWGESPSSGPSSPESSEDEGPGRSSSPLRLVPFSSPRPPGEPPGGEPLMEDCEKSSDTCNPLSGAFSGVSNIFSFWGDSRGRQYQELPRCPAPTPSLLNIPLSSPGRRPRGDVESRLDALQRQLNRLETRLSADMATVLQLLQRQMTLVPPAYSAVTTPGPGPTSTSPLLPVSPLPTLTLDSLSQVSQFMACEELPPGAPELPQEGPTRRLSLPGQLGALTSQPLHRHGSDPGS

Staphylococcus aureus [4] = assay: Ratio of MIC for quinolone-resistant Staphylococcus aureus MS5935 to MIC for quinolone-sensitive Staphylococcus aureus MS5935; assay type: functional
Staphylococcus aureus [5] = assay: Antibacterial activity against Staphylococcus aureus infected in iv dosed mouse; assay type: functional
Staphylococcus aureus [6] = assay: Antibacterial activity against Staphylococcus aureus infected in po dosed mouse; assay type: functional
[7] = biological target: T1, Voltage-gated inwardly rectifying potassium channel KCNH2; assay: Inhibition of human ERG expressed in CHO cells by patch express assay; assay type: cell-based
[8] = Staphylococcus aureus, Smith, read-out: MIC
[9] = Staphylococcus aureus, OIT971, read-out: MIC
[10] = Streptococcus pneumoniae, IID553, read-out: MIC
[11] = Enterococcus faecium, VanA, read-out: MIC
[12] = Escherichia coli, ATCC 25922, read-out: MIC
[13] = Acinetobacter baumannii, IID876, read-out: MIC
[14] = Pseudomonas aeruginosa, PAO1, read-out: MIC

Structure (SMILES) | MIC (Staphylococcus aureus [1]; [8]) [µg/mL] | MIC (Staphylococcus aureus [2]; [9]) [µg/mL] | MIC (Streptococcus pneumoniae; [10]) [µg/mL] | MIC (Enterococcus faecium; [11]) [µg/mL] | MIC (Escherichia coli; [12]) [µg/mL] | MIC (Acinetobacter baumannii; [13]) [µg/mL] | MIC (Pseudomonas aeruginosa; [14]) [µg/mL] | IC50 [3] [µM] | Ratio (Staphylococcus aureus [4]) | MIC (Staphylococcus aureus [1]) [µg/mL] | MIC (Staphylococcus aureus [2]) [µg/mL] | MIC (Streptococcus pneumoniae) [µg/mL] | ED50 (Staphylococcus aureus [5]) [mg/kg] | ED50 (Staphylococcus aureus [6]) [mg/kg] | IC50 [7] [µM] | MIC (Enterococcus faecium) [µg/mL] | MIC (Escherichia coli) [µg/mL] | MIC (Acinetobacter baumannii) [µg/mL] | MIC (Pseudomonas aeruginosa) [µg/mL]
COc1ccc2ncc(F)c(CC(N)C34CCC(NCc5ccc6c(n5)NC(=O)CO6)(CC3)CO4)c2n1 (single isomer, unassigned; (+)) | 0.25 (≈ 0.492 µM) | 0.25 (≈ 0.492 µM) | 2 (≈ 3.93 µM) | 8 (≈ 15.7 µM) | 1 (≈ 1.97 µM) | 0.25 (≈ 0.492 µM) | 16 (≈ 31.5 µM) |  |  |  |  |  |  |  |  |  |  |  | 
COc1ccc2ncc(F)c(CC(=O)C34CCC(NCc5ccc6c(n5)NC(=O)CO6)(CC3)CO4)c2n1 | 0.13 (≈ 0.256 µM) | 0.13 (≈ 0.256 µM) | 0.25 (≈ 0.493 µM) | 4 (≈ 7.88 µM) | 16 (≈ 31.5 µM) | 2 (≈ 3.94 µM) | 16 (≈ 31.5 µM) |  |  |  |  |  |  |  |  |  |  |  | 
COc1ccc2ncc(F)c(CC(O)(C(F)(F)F)C34CCC(NCc5ccc6c(n5)NC(=O)CO6)(CC3)CO4)c2n1 (racemic) | 0.5 (≈ 0.866 µM) | 0.5 (≈ 0.866 µM) | 4 (≈ 6.93 µM) | 32 (≈ 55.4 µM) | 32 (≈ 55.4 µM) | 32 (≈ 55.4 µM) | 32 (≈ 55.4 µM) |  |  |  |  |  |  |  |  |  |  |  | 
COc1ccc2ncc(F)c(C[C@H](OC)C34CCC(NCc5ccc6c(n5)NC(=O)CO6)(CC3)CO4)c2n1 | 0.25 (≈ 0.477 µM) | 0.25 (≈ 0.477 µM) | 2 (≈ 3.82 µM) | 8 (≈ 15.3 µM) | 16 (≈ 30.6 µM) | 8 (≈ 15.3 µM) | 16 (≈ 30.6 µM) |  |  |  |  |  |  |  |  |  |  |  | 
COc1ccc2ncc(F)c(C/C(=N\O)C34CCC(NCc5ccc6c(n5)NC(=O)CO6)(CC3)CO4)c2n1 | 0.5 (≈ 0.957 µM) | 0.5 (≈ 0.957 µM) | 2 (≈ 3.83 µM) | 2 (≈ 3.83 µM) | 2 (≈ 3.83 µM) | 2 (≈ 3.83 µM) | 2 (≈ 3.83 µM) | 1.6 | <4 |  |  |  |  |  |  |  |  |  | 
COc1ccc2ncc(F)c(CC(NOC(C)=O)C34CCC(NCc5ccc6c(n5)NC(=O)CO6)(CC3)CO4)c2n1 (racemic) | 2 (≈ 3.53 µM) | 2 (≈ 3.53 µM) | 16 (≈ 28.2 µM) | 32 (≈ 56.5 µM) | 32 (≈ 56.5 µM) | 32 (≈ 56.5 µM) | 32 (≈ 56.5 µM) |  |  |  |  |  |  |  |  |  |  |  | 
COc1ccc2ncc(F)c(CC(C)(O)C34CCC(NCc5ccc6c(n5)NC(=O)CO6)(CC3)CO4)c2n1 (racemic) | 0.06 (≈ 0.115 µM) | 0.06 (≈ 0.115 µM) | 0.5 (≈ 0.955 µM) | 4 (≈ 7.64 µM) | 8 (≈ 15.3 µM) | 2 (≈ 3.82 µM) | 32 (≈ 61.1 µM) | 6.1 | <4 |  |  |  |  |  |  |  |  |  | 
COc1ccc2ncc(F)c(CC(OCC(=O)O)C34CCC(NCc5ccc6c(n5)NC(=O)CO6)(CC3)CO4)c2n1 (racemic) | 4 (≈ 7.05 µM) | 4 (≈ 7.05 µM) | 32 (≈ 56.4 µM) | 32 (≈ 56.4 µM) | 32 (≈ 56.4 µM) | 32 (≈ 56.4 µM) | 32 (≈ 56.4 µM) |  |  |  |  |  |  |  |  |  |  |  | 
COc1ccc2ncc(F)c(C(C)(O)CC34CCC(NCc5ccc6c(n5)NC(=O)CO6)(CC3)CO4)c2n1 (racemic) | 1 (≈ 1.91 µM) | 1 (≈ 1.91 µM) | 4 (≈ 7.64 µM) | 16 (≈ 30.6 µM) | 32 (≈ 61.1 µM) | 32 (≈ 61.1 µM) | 32 (≈ 61.1 µM) |  |  |  |  |  |  |  |  |  |  |  | 
COc1ccc2ncc(F)c(C(O)CC34CCC(NCc5ccc6c(n5)NC(=O)CO6)(CC3)CO4)c2n1 (single isomer, unassigned; (+)) |  |  |  | 4 (≈ 7.85 µM) | 8 (≈ 15.7 µM) | 1 (≈ 1.96 µM) | 16 (≈ 31.4 µM) | 4 | <4 | 0.13 (≈ 0.255 µM) | 0.13 (≈ 0.255 µM) | 1 (≈ 1.96 µM) |  |  |  |  |  |  | 
CCOC(=O)C(CC12CCC(NCc3ccc4c(n3)NC(=O)CO4)(CC1)CO2)c1c(F)cnc2ccc(OC)nc12 (racemic) | 2 (≈ 3.54 µM) | 2 (≈ 3.54 µM) | 8 (≈ 14.1 µM) | 32 (≈ 56.6 µM) | 32 (≈ 56.6 µM) | 32 (≈ 56.6 µM) | 32 (≈ 56.6 µM) |  |  |  |  |  |  |  |  |  |  |  | 
COc1ccc2ncc(F)c(CC(N)C34CCC(NCc5ccc6c(n5)NC(=O)CO6)(CC3)CO4)c2n1.Cl (stereo in doubt) |  |  |  |  |  |  |  |  |  |  |  |  | 11 | 21 |  |  |  |  | 
COc1ccc2ncc(F)c([C@@H](O)[C@H](O)C34CCC(NCc5ccc6c(n5)NC(=O)CO6)(CC3)CO4)c2n1 | 0.25 (≈ 0.476 µM) | 0.25 (≈ 0.476 µM) | 2 (≈ 3.81 µM) | 8 (≈ 15.2 µM) | 16 (≈ 30.4 µM) | 2 (≈ 3.81 µM) | 32 (≈ 60.9 µM) | 60 | <4 |  |  |  |  |  |  |  |  |  | 
COc1ccc2ncc(F)c([C@H]3OC(=O)O[C@@H]3C34CCC(NCc5ccc6c(n5)NC(=O)CO6)(CC3)CO4)c2n1 (single isomer, unassigned; (+)) | 2 (≈ 3.63 µM) | 2 (≈ 3.63 µM) | 16 (≈ 29 µM) | 16 (≈ 29 µM) | 16 (≈ 29 µM) | 16 (≈ 29 µM) | 16 (≈ 29 µM) | 11.2 | <4 |  |  |  |  |  |  |  |  |  | 
COc1ccc2ncc(F)c(C(=O)CC34CCC(NCc5ccc6c(n5)NC(=O)CO6)(CC3)CO4)c2n1 | 0.06 (≈ 0.118 µM) | 0.06 (≈ 0.118 µM) | 0.25 (≈ 0.493 µM) | 2 (≈ 3.94 µM) | 4 (≈ 7.88 µM) | 1 (≈ 1.97 µM) | 32 (≈ 63.1 µM) | 1.2 | <4 |  |  |  |  |  | 3.7 |  |  |  | 
COc1ccc2ncc(F)c(C(O)CC34CCC(NCc5ccc6c(n5)NC(=O)CO6)(CC3)CO4)c2n1 (single isomer, unassigned; (-)) |  |  |  |  |  |  |  | 1.3 |  | 0.03 (≈ 0.0589 µM) | 0.03 (≈ 0.0589 µM) | 0.25 (≈ 0.491 µM) |  |  |  | 2 (≈ 3.93 µM) | 4 (≈ 7.85 µM) | 1 (≈ 1.96 µM) | 16 (≈ 31.4 µM)
